Common to all, as to experiment: URAT1 uric acid transport activity assay
Format in all cases: cell-based

Assay [1] concerns the target T1, r-L29M rURAT1 point mutant (Rattus norvegicus, UniProt Q3ZAV1, L29M).
T1 sequence (Q3ZAV1 1-553 L29M): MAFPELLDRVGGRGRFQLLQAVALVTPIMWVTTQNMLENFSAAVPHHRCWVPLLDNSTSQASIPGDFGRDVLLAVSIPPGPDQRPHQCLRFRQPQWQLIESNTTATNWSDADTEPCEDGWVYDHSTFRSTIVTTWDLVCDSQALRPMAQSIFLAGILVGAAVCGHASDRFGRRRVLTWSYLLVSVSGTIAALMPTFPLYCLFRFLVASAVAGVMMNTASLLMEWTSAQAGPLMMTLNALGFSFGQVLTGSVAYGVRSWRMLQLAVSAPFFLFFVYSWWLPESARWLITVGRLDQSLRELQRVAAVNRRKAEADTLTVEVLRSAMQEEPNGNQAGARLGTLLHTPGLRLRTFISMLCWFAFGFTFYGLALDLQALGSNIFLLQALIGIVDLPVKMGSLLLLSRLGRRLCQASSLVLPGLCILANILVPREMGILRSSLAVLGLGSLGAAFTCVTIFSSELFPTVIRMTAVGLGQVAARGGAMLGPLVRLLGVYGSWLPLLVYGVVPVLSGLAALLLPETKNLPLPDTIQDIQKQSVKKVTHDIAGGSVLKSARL
From the text:
(§1) hURAT1 (GenBank BC053348.1) and rURAT1 (NCBI NM_001034943.1) genes were purchased from Origene Technologies, Inc. and subcloned into pCMV6/neo using NotI, creating pCMV6/neo-hURAT1 and pCMV6/neo-rURAT1. Mutants were produced by polymerase chain reaction (PCR) or site-directed mutagenesis using the QuikChange Lightning Multi Site-Directed Mutagenesis Kit (Agilent Technologies). […] Detailed methods are provided in Supplementary Methods, and primers are listed in Supplementary Table 1. […] Residues in rURAT1 and hOAT1 that correspond to the residues in hURAT1 were identified from aligned protein sequences (Supplementary Fig. 1)[50].
(§2) DNA (10 μg) was mixed with 30 μl of DreamFect Gold (Boca Scientific) in 2 ml OptiMem (Life Technologies). After 20 minutes, 18 ml of media containing 2 × 10^7 cells in suspension was added and mixed, and 200 μl per well were plated onto white clear-bottomed poly-D-lysine coated 96-well plates (BD Biosciences). The cells were assayed the following day.
(§3) Compounds were serially diluted into assay buffer and added to the cells for 5 minutes prior to addition of radiolabelled uric acid substrate. URAT1-expressing cells were incubated with 100 μM ^14C-uric acid for 10 minutes. […] Each treatment was measured in triplicate.
(§4) Unlabelled uric acid was prepared at a 20 mM stock just prior to use in a solution containing 20 mM dibasic potassium phosphate and 20 mM potassium hydroxide.
(§5) Nonlinear regression analyses using GraphPad Prism software were used to calculate the potency of URAT1 inhibitors (IC50 values) from log (inhibitor) versus response - variable slope (four parameters) equations. Statistical significance was assessed using Student’s unpaired t-tests.

For a further assay, the target named is T2, rat URAT1 (rURAT1 WT) (Rattus norvegicus, UniProt Q3ZAV1).
T2 sequence (Q3ZAV1 1-553): T1 sequence (Q3ZAV1 1-553 L29M) with M29L
Excerpt: as §1, §2, §3, §4, §5

Assay [2] has as its target T3, r-M354T rURAT1 point mutant (Rattus norvegicus, UniProt Q3ZAV1, M354T).
T3 construct: expressed in transfected cells; host or cells: HEK-293T
T3 sequence (Q3ZAV1 1-553 M354T): T1 sequence (Q3ZAV1 1-553 L29M) with M29L, M354T
Excerpt: as §1, §2, §3, §4, §5

The mark [3] stands for this setting: rURAT1 WT, MES pH 5.5, 100 μM 14C-uric acid, read-out: IC50 (uric acid transport).

In PMC5054527, “Mechanism of high affinity inhibition of the human urate transporter URAT1” (Scientific Reports, 2016) one finds IC50 data, which are given here for four compounds.

Molecules are shown by their SMILES. Numbering of substitutions follows the chain as printed. Where two headings read alike, the source gives them in different places.

With `CCc1oc2ccccc2c1C(=O)c1cc(Br)c(O)c(Br)c1` [benzbromarone], the IC50 (usually the point on the concentration scale where inhibition reaches its midpoint) was 21 ± 3.3 µM in assay [1], 26 µM on rat URAT1 (rURAT1 WT) and 18 ± 1.7 µM in assay [2].
For `O=C(O)CSc1nnc(Br)n1-c1ccc(C2CC2)c2ccccc12` [lesinurad, 2-((5-bromo-4-(4-cyclopropylnaphthalen-1-yl)-4H-1,2,4-triazol-3-yl)thio)acetic acid], the IC50 in assay [1] (r-L29M, MES pH 5.5, 100 μM 14C-uric acid, read-out: IC50 (uric acid transport)) turned out to be 77 ± 6.6 µM; on rat URAT1 (rURAT1 WT) (setting [3]), 81 µM; in assay [2] (r-M354T, MES pH 5.5, 100 μM 14C-uric acid, read-out: IC50 (uric acid transport)) it was 56 ± 4.9 µM.
For the compound `O=C1C(CC[S+]([O-])c2ccccc2)C(=O)N(c2ccccc2)N1c1ccccc1` (stereo not shown) [sulfinpyrazone], the IC50 was determined as 495 ± 152 µM in assay [1] (r-L29M, HEPES pH 7.3, 100 μM 14C-uric acid, read-out: IC50 (uric acid transport)); 680 µM on rat URAT1 (rURAT1 WT) (rURAT1 WT, HEPES pH 7.3, 100 μM 14C-uric acid, read-out: IC50 (uric acid transport)); 304 ± 38 µM in assay [2] (r-M354T, HEPES pH 7.3, 100 μM 14C-uric acid, read-out: IC50 (uric acid transport)).
As to `O=c1[nH]c(=O)c2[nH]c(=O)[nH]c2[nH]1` [uric acid], the IC50 at rat URAT1 (rURAT1 WT) (setting [3]) was 2630 µM.
